Read-outs that look alike come from different tables or passages of the source.
Molecular target: T1, Human DGAT1 (Homo sapiens, UniProt O75907)
T1 construct: my translation of the primer: M-G-DYKDDDD-GDRGSSRRR) (N); made in house; host or cells: Sf9 insect cells (recombinant baculovirus BAC-DGAT1, pFASTBAC1); microsome fraction
T1 sequence (O75907 1-488): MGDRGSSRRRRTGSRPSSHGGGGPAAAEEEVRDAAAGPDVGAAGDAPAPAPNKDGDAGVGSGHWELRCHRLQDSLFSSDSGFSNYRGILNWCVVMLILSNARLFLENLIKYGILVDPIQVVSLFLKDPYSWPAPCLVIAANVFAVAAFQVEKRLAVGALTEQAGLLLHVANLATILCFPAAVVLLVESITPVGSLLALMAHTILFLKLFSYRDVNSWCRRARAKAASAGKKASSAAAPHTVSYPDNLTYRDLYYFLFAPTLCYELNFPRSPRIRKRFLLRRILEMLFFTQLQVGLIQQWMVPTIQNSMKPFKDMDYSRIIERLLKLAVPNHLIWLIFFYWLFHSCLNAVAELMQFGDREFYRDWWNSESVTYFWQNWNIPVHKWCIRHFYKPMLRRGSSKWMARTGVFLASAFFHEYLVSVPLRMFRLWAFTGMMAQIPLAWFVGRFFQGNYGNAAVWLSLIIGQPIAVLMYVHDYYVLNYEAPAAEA
Assay: DGAT inhibitory activity: [14C]-triglyceride synthesis by DGAT1 high expression Sf9 microsome
Type: biochemical
Conditions: 25 μM [14C]-Oleoyl-CoA, 32° C., 15 min, read-out: DGAT inhibitory activity (according to IC50)
Experimental: The primer base sequence is shown below.
The PCR reaction was conducted using a KOD-plus kit (TOYOBO). The obtained PCR product was electrophoresed on agarose gel (1%), the DNA fragment amplified by PCR was recovered from the gel, and then digested with restriction enzymes EcoRI and SpeI. […] Furthermore, using BAC-TO-BAC Baculovirus Expression System (Invitrogen), recombinant baculovirus BAC-DGAT1 was prepared.
SF9 cells were sown at 1×10^6 cells/ml on Sf-900II SEM medium (1 L, Invitrogen) containing 10% fetal calf serum (Trace), 50 mg/L gentamicin (Invitrogen) and 0.1% Pluronic F-68 (Invitrogen), and shaking culture was performed using a 2 L volume Erlenmeyer at 27° C., 100 rpm. After culturing for 24 hr, recombinant baculovirus BAC-DGAT1 (6.7 mL) was added, and the mixture was further cultured for 3 days. The culture medium was centrifuged at 2,000 rpm for 5 min to give virus-infected cells. The infected cells were washed with a phosphate buffered saline (Invitrogen), centrifuged under the same conditions, and the cells were preserved at −80° C. The cryopreserved cells were thawed in ice, suspended in buffer A (50 mM Tris buffer (30 mL, pH 7.4) containing 20% glycerol, 0.15 M NaCl) supplemented with Complete Protease Inhibitor (Boehringer), and ruptured 3 times with a Polytron homogenizer (Kinematica) at 20,000 rpm for 30 sec. The Sf9 microsome fractions were obtained by a conventional method and cryopreserved at −80° C. as a DGAT1 high expression Sf9 microsome.
As a DGAT1 reaction buffer, a solution having a composition of 100 mM Tris-HCl (pH 7.5), 250 mM sucrose, 150 mM MgCl2, 0.01% bovine serum albumin (BSA) was used. […] A mixture of 300 μL of chloroform:methanol (=1:2) was added to the reaction mixture to quench the reaction. The reaction mixture was sufficiently mixed and saline (200 μL) was added to partition the mixture between a chloroform layer (lower layer) and an aqueous layer (upper layer). The chloroform layer (50 μL) was spotted on a thin layer chromatography silica gel plate (TLC plate, Merck) and developed with a solvent (n-hexane:diethyl ether:ethyl acetate:acetic acid=74:15:15:1). The developed TLC plate was dried, contacted with a BAS imaging plate (manufactured by FUJIFILM) and measured with BAS2500 (manufactured by FUJIFILM) 16 hr later to numerically show the amount of [^14C]-triglyceride (TG amount) produced during the reaction. The inhibitory rate was calculated by the following formula:
Inhibitory rate (%)=(1−(TG amount in the case with addition of test compound−blank TG amount)/(control TG amount−blank TG amount))×100
The count of the triglyceride produced in the solution reacted without addition of the test compound was used as a “control TG amount”, and the count of the triglyceride produced in the solution reacted without addition of the test compound and DGAT1 high expression Sf9 microsome was used as a “blank TG amount”.

[1] = Table 2, 25 μM dioleoylglycerol
[2] = Table 1, 25 μM dioleoylglycerol

IC50 [1] | IC50 [2] | Compound
50 to 500 nM |  | CCOc1ccc(C(=O)CCC(=O)Nc2cc(-c3ccccc3)cc(-c3ccccc3)n2)cc1 [Example 102, N-(4,6-diphenylpyridin-2-yl)-4-(4-ethoxyphenyl)-4-oxobutanamide]
500 to 10000 nM |  | CCOc1cccc(C(=O)CCC(=O)Nc2cc(-c3ccccc3)cc(-c3ccccc3)n2)c1 [Example 103, N-(4,6-diphenylpyridin-2-yl)-4-(3-ethoxyphenyl)-4-oxobutanamide]
50 to 500 nM |  | CCOc1ccc(C(=O)CCC(=O)Nc2nc3ccccc3c(-c3ccccc3)c2C)cc1OCC [Example 88, 4-(3,4-diethoxyphenyl)-N-(3-methyl-4-phenylquinolin-2-yl)-4-oxobutanamide]
10 to 50 nM |  | CCOc1ccc(C(=O)CCC(=O)Nc2cc(-c3ccc(C(N)=O)cc3)cc(-c3ccccc3)n2)cc1OCC [Example 128, 4-(2-{[4-(3,4-diethoxyphenyl)-4-oxobutanoyl]amino}-6-phenylpyridin-4-yl)benzamide]
 | 50 to 500 nM | CCOc1ccc(C(=O)CCC(=O)Nc2cc(-c3ccccc3)sc2-c2ccccc2)cc1OCC [Example 18, 4-(3,4-diethoxyphenyl)-N-(2,5-diphenyl-3-thienyl)-4-oxobutanamide]
10 to 50 nM |  | CCOc1ccc(C(=O)CCC(=O)Nc2cc(-c3ccc(O)c(OC)c3)cc(-c3ccccc3)n2)cc1OCC [Example 149, 4-(3,4-diethoxyphenyl)-N-[4-(4-hydroxy-3-methoxyphenyl)-6-phenylpyridin-2-yl]-4-oxobutanamide]
10 to 50 nM |  | CCOc1ccc(C(=O)CCC(=O)Nc2cc(-c3cccc(CC#N)c3)cc(-c3ccccc3)n2)cc1OCC [Example 133, N-{4-[3-(cyanomethyl)phenyl]-6-phenylpyridin-2-yl}-4-(3,4-diethoxyphenyl)-4-oxobutanamide]
 | 500 to 10000 nM | CCOc1ccc(C(=O)CCC(=O)Nc2cnn(Cc3ccccc3)c2-c2ccccc2)cc1OCC [Example 21, N-(1-benzyl-5-phenyl-1H-pyrazol-4-yl)-4-(3,4-diethoxyphenyl)-4-oxobutanamide]
50 to 500 nM |  | CCOc1ccc(C(=O)CCC(=O)Nc2cc(-c3cccc(CO)c3)cc(-c3ccccc3)n2)cc1OCC [Example 136, 4-(3,4-diethoxyphenyl)-N-{4-[3-(hydroxymethyl)phenyl]-6-phenylpyridin-2-yl}-4-oxobutanamide]
10 to 50 nM |  | CCOc1ccc(C(=O)CCC(=O)Nc2cc(-c3ccc(CO)cc3)cc(-c3ccccc3)n2)cc1OCC [Example 124, 4-(3,4-diethoxyphenyl)-N-{4-[4-(hydroxymethyl)phenyl]-6-phenylpyridin-2-yl}-4-oxobutanamide]
50 to 500 nM |  | CCOc1ccc(C(=O)CCC(=O)Nc2cc(-c3ccncc3)c3ccccc3n2)cc1OCC [Example 91, 4-(3,4-diethoxyphenyl)-4-oxo-N-[4-(pyridin-4-yl)quinolin-2-yl]butanamide]
10 to 50 nM |  | CCOc1ccc(C(=O)CCC(=O)Nc2cc(-c3cccc(OC)c3)c3ccccc3n2)cc1OCC [Example 80, 4-(3,4-diethoxyphenyl)-N-[4-(3-methoxyphenyl)quinolin-2-yl]-4-oxobutanamide]
500 to 10000 nM |  | CCCCCC/C=C/c1cc(NC(=O)CCC(=O)c2ccc(OCC)c(OCC)c2)nc(-c2ccccc2)c1 [Example 152, 4-(3,4-diethoxyphenyl)-N-{4-[(1E)-octa-1-en-1-yl]-6-phenylpyridin-2-yl}-4-oxobutanamide]
50 to 500 nM |  | CCOc1ccc(C(=O)CCC(=O)Nc2cc(-c3cccc(OC(F)(F)F)c3)cc(-c3ccccc3)n2)cc1OCC [Example 143, 4-(3,4-diethoxyphenyl)-4-oxo-N-{6-phenyl-4-[3-(trifluoromethoxy)phenyl]pyridin-2-yl}butanamide]
10 to 50 nM |  | CCOc1ccc(C(=O)CCC(=O)Nc2cc(-c3cccc(O)c3)cc(-c3ccccc3)n2)cc1OCC [Example 134, 4-(3,4-diethoxyphenyl)-N-[4-(3-hydroxyphenyl)-6-phenylpyridin-2-yl]-4-oxobutanamide]

The remaining lines, values behind:

Compound | IC50 [1] | IC50 [2]
CCOc1ccc(C(=O)NCCNC(=O)c2cc(-c3ccccc3)n(-c3ccc(OC(F)(F)F)cc3)c2C)cc1 [Example 62, N-{2-[(4-ethoxybenzoyl)amino]ethyl}-2-methyl-5-phenyl-1-[4-(trifluoromethoxy)phenyl]-1H-pyrrole-3-carboxamide] |  | 50 to 500 nM
O=C(CCC(=O)c1ccc2c(c1)CCCC2)Nc1cc(-c2ccccc2)cc(-c2ccccc2)n1 [Example 105, N-(4,6-diphenylpyridin-2-yl)-4-oxo-4-(5,6,7,8-tetrahydronaphthalen-2-yl)butanamide] | 50 to 500 nM | 
CCOc1ccc(C(=O)CCC(=O)Nc2ccc(CN3CCOCC3)c(-c3ccccc3)c2)cc1OCC [Example 39, 4-(3,4-diethoxyphenyl)-N-(6-(morpholin-4-ylmethyl)biphenyl-3-yl]-4-oxobutanamide] |  | 500 to 10000 nM
O=C(CCC(=O)c1ccc2c(c1)CCO2)Nc1cc(-c2ccc(N3CCOCC3)cc2)cc(-c2ccccc2)n1 [Example 160, 4-(2,3-dihydro-1-benzofuran-5-yl)-N-[4-(4-(morpholin-4-yl)phenyl)-6-phenylpyridin-2-yl]-4-oxobutanamide] | 500 to 10000 nM | 
CCCCOc1cccc(-c2cc(NC(=O)CCC(=O)c3ccc(OCC)c(OCC)c3)nc(-c3ccccc3)c2)c1 [Example 135, N-[4-(3-butoxyphenyl)-6-phenylpyridin-2-yl]-4-(3,4-diethoxyphenyl)-4-oxobutanamide] | 500 to 10000 nM | 
O=C(CCC(=O)c1ccc2c(c1)CCO2)Nc1nc(-c2ccccc2)c(Cc2ccccc2)s1 [Example 27, N-(5-benzyl-4-phenyl-1,3-thiazol-2-yl)-4-(2,3-dihydro-1-benzofuran-5-yl)-4-oxobutanamide] |  | ≤ 10 nM
CN(C)c1ccc(-c2cc(NC(=O)CCC(=O)c3ccc4c(c3)CCO4)nc(-c3ccccc3)c2)cc1 [Example 162, 4-(2,3-dihydro-1-benzofuran-5-yl)-N-{4-[4-(dimethylamino)phenyl]-6-phenylpyridin-2-yl}-4-oxobutanamide] | 50 to 500 nM | 
O=C(CCC(=O)c1ccc2c(c1)CCO2)Nc1cc(-c2ccoc2)cc(-c2ccccc2)n1 [Example 115, 4-(2,3-dihydro-1-benzofuran-5-yl)-N-[4-(3-furyl)-6-phenylpyridin-2-yl]-4-oxobutanamide] | 50 to 500 nM | 
COc1cc2c(cc1C(=O)CCC(=O)Nc1nc(-c3ccccc3)c(Cc3ccccc3)s1)CCCC2 [Example 29, N-(5-benzyl-4-phenyl-1,3-thiazol-2-yl)-4-(3-methoxy-5,6,7,8-tetrahydronaphthalen-2-yl)-4-oxobutanamide] |  | 10 to 50 nM
CCOC(=O)CCc1ccc(NC(=O)CCC(=O)c2ccc(OCC)c(OCC)c2)cc1-c1ccccc1 [Example 9, ethyl 3-(5-{[4-(3,4-diethoxyphenyl)-4-oxobutanoyl]amino}biphenyl-2-yl)propanoate] |  | 50 to 500 nM
CCOc1ccc(C(=O)CCC(=O)Nc2cc(-c3ccccc3Cl)nn2-c2ccc(C)cc2)cc1OCC [Example 101, N-[3-(2-chlorophenyl)-1-(4-methylphenyl)-1H-pyrazol-5-yl]-4-(3,4-diethoxyphenyl)-4-oxobutanamide] | 500 to 10000 nM | 
CCOc1ccc(C(=O)NCCNC(=O)c2cc(-c3ccccc3)n(-c3ccc(SC)cc3)c2C)cc1 [Example 65, N-{2-[(4-ethoxybenzoyl)amino]ethyl}-2-methyl-1-[4-(methylthio)phenyl]-5-phenyl-1H-pyrrole-3-carboxamide] |  | 10 to 50 nM

Source: US20090048258A1, “Amide Compound” (priority 2005, published 2009)
